Data as given in patent US12319672B2, “Alpha-D-galactopyranoside derivatives” (Idorsia Pharmaceuticals Ltd, priority 2019, dated 2025).

Legend:
[1] = biological target: human Gal-3 (hGal-3) (Homo sapiens (Human), UniProt P17931); assay: Competitive binding assay: binding of biotinylated hGal-3 to microplate-adsorbed asialofetuin (ASF); conditions: Activity on hGal-3; mean values of several measurements
In short: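 Biotinylated hGal-3 (300-1000 ng/mL) bound to ASF-coated wells with serially diluted compound, 3 h at 4° C. After washing, bound protein was detected with streptavidin-peroxidase (80 ng/mL, 1 h, 4° C) and ABTS substrate; IC50 values are means of several measurements.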

[2] = biological target: human Gal-1 (hGal-1); assay: Competitive binding assay: binding of biotinylated hGal-1 to microplate-adsorbed asialofetuin (ASF); conditions: Activities on hGal-1; mean values of several measurements
In short: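 Biotin-hGal-3/hGal-1 300-1000 ng/mL + cpd (DMSO dilutions) on ASF-coated plate, 3 h 4° C; wash; SA-HRP 80 ng/mL 1 h 4° C; wash; ABTS. IC50 = mean of several runs. hGal-1 preferably Cys→Ser (all six) mutant.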

human Gal-3 (hGal-3), sequence (P17931 whole entry): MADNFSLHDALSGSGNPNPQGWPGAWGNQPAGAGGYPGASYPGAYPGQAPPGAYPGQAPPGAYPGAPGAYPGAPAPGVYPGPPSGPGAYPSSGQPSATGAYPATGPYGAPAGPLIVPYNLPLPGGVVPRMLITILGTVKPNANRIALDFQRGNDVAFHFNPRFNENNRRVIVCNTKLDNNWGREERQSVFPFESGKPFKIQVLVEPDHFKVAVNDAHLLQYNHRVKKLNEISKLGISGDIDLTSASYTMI
human Gal-1 (hGal-1), sequence (P09382 2-135 limits assumed): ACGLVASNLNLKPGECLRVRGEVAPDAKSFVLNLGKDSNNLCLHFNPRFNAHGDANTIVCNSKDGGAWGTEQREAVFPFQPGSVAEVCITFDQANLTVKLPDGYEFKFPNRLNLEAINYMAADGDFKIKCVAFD

CO[C@@H]1[C@@H](n2cc(-c3cc(F)c(F)c(F)c3)nn2)[C@@H](O)[C@@H](CO)O[C@@H]1Cn1cc(C2CCCC2)nn1 [Example 4.48, (2R,3R,4S,5R,6R)-6-((4-cyclopentyl-1H-1,2,3-triazol-1-yl)methyl)-2-(hydroxymethyl)-5-methoxy-4-(4-(3,4,5-trifluorophenyl)-1H-1,2,3-triazol-1-yl)tetrahydro-2H-pyran-3-ol] showed an IC50 [1] of 250 nM and an IC50 [2] of 2860 nM.
Work on CO[C@@H]1[C@@H](n2cc(-c3ccc(C)c(F)c3F)nn2)[C@@H](O)[C@@H](CO)O[C@@H]1Cc1cc(C2CCN(S(C)(=O)=O)CC2)on1 [Ex 1.159] yielded an IC50 [1] of 57 nM and an IC50 [2] of 1530 nM.
CO[C@@H]1[C@@H](n2cc(-c3ccc(C)c(F)c3F)nn2)[C@@H](O)[C@@H](CO)O[C@@H]1Cc1cc(C2CCCC2)on1 [Ex 1.240] gave an IC50 [1] of 100 nM and an IC50 [2] of 13900 nM.
Work on CC(C)(C)OC(=O)N1CCC(C2=NOC(C[C@H]3O[C@H](CO)[C@H](O)[C@H](n4cc(-c5cc(F)c(Cl)cc5F)nn4)[C@H]3O)C2)CC1 (some centres unmarked) [Ex 1.95] yielded an IC50 [1] of 190 nM and an IC50 [2] of 1210 nM.
Compound CO[C@@H]1[C@@H](n2cc(-c3cc(F)c(F)c(F)c3)nn2)[C@@H](O)[C@@H](CO)O[C@@H]1CC1CC(c2cncnc2)=NO1 (some centres unmarked) [Ex 1.15] has an IC50 [1] of 650 nM and an IC50 [2] of 3200 nM.
Work on CC(C)(C)c1cc(C[C@H]2O[C@H](CO)[C@H](O)[C@H](n3cc(-c4cc(F)c(F)c(F)c4)nn3)[C@H]2OCC(=O)N2CC(O)C2)no1 [Example 2.40, 2-(((2R,3R,4S,5R,6R)-2-((5-(tert-butyl)isoxazol-3-yl)methyl)-5-hydroxy-6-(hydroxymethyl)-4-(4-(3,4,5-trifluorophenyl)-1H-1,2,3-triazol-1-yl)tetrahydro-2H-pyran-3-yl)oxy)-1-(3-hydroxyazetidin-1-yl)ethan-1-one] yielded an IC50 [1] of 130 nM and an IC50 [2] of 4580 nM.
For CO[C@@H]1[C@@H](n2cc(-c3ccc(C)c(F)c3F)nn2)[C@@H](O)[C@@H](CO)O[C@@H]1CN1CC(=O)N(C2CCCCC2)C1 [Example 6.06, 3-cyclohexyl-1-(((2R,3R,4S,5R,6R)-4-(4-(2,3-difluoro-4-methylphenyl)-1H-1,2,3-triazol-1-yl)-5-hydroxy-6-(hydroxymethyl)-3-methoxytetrahydro-2H-pyran-2-yl)methyl)imidazolidin-4-one], the IC50 [1] was 42 nM and the IC50 [2] was 1630 nM.
For CO[C@@H]1[C@@H](n2cc(-c3ccc(Cl)c(F)c3F)nn2)[C@@H](O)[C@@H](CO)O[C@@H]1Cc1cc(C(C)(C)O)no1 [Example 2.63, (2R,3R,4S,5R,6R)-4-(4-(4-chloro-2,3-difluorophenyl)-1H-1,2,3-triazol-1-yl)-2-(hydroxymethyl)-6-((3-(2-hydroxypropan-2-yl)isoxazol-5-yl)methyl)-5-methoxytetrahydro-2H-pyran-3-ol], the IC50 [1] was 74 nM and the IC50 [2] was 1730 nM.
CO[C@@H]1[C@@H](n2cc(-c3cc(F)c(F)c(F)c3)nn2)[C@@H](O)[C@@H](CO)O[C@@H]1Cc1cn(C2CCOCC2)nn1 [Example 4.03, (2R,3R,4S,5R,6R)-2-(hydroxymethyl)-5-methoxy-6-((1-(tetrahydro-2H-pyran-4-yl)-1H-1,2,3-triazol-4-yl)methyl)-4-(4-(3,4,5-trifluorophenyl)-1H-1,2,3-triazol-1-yl)tetrahydro-2H-pyran-3-ol] showed an IC50 [1] of 76 nM and an IC50 [2] of 1760 nM.
Work on CO[C@@H]1[C@@H](n2cc(-c3cc(F)c(F)c(F)c3)nn2)[C@@H](O)[C@@H](CO)O[C@@H]1Cc1cc(C2CCN(S(=O)(=NC(C)C)C(C)C)CC2)on1 (some centres unmarked) [Ex 1.197] yielded an IC50 [1] of 110 nM and an IC50 [2] of 2190 nM.
CO[C@@H]1[C@@H](n2cc(-c3cc(F)c(F)c(F)c3)nn2)[C@@H](O)[C@@H](CO)O[C@@H]1Cc1cn(C2CCN(S(=N)(=O)C(C)(C)C)CC2)nn1 (stereo partly drawn) [Example 4.21, (2R,3R,4S,5R,6R)-2-(hydroxymethyl)-5-methoxy-6-((1-(1-(2-methylpropan-2-ylsulfonimidoyl)piperidin-4-yl)-1H-1,2,3-triazol-4-yl)methyl)-4-(4-(3,4,5-trifluorophenyl)-1H-1,2,3-triazol-1-yl)tetrahydro-2H-pyran-3-ol] showed an IC50 [1] of 19 nM and an IC50 [2] of 86 nM.
For CO[C@@H]1[C@@H](n2cc(-c3cc(F)c(C)c(F)c3)nn2)[C@@H](O)[C@@H](CO)O[C@@H]1Cc1cc(C2CCN(S(C)(=O)=O)CC2)on1 [Ex 1.152], the IC50 [1] was 39 nM and the IC50 [2] was 1510 nM.
In the case of CC(=O)N1CCC(C2CC(C[C@H]3O[C@H](CO)[C@H](O)[C@H](n4cc(-c5cc(F)c(F)c(F)c5)nn4)[C@H]3O)=NO2)CC1 (mixture of isomers) [Example 3.18, 1-(4-((RS)-3-(((2R,3R,4R,5R,6R)-3,5-dihydroxy-6-(hydroxymethyl)-4-(4-(3,4,5-trifluorophenyl)-1H-1,2,3-triazol-1-yl)tetrahydro-2H-pyran-2-yl)methyl)-4,5-dihydroisoxazol-5-yl)piperidin-1-yl)ethan-1-one], the IC50 [1] is reported as 180 nM and the IC50 [2] is reported as 2220 nM.
For CO[C@@H]1[C@@H](n2cc(-c3cc(F)c(F)c(F)c3)nn2)[C@@H](O)[C@@H](CO)O[C@@H]1Cc1cn(C2CCS(=N)(=O)CC2)nn1 (stereo partly drawn) [Example 4.17, 4-(4-(((2R,3R,4S,5R,6R)-5-hydroxy-6-(hydroxymethyl)-3-methoxy-4-(4-(3,4,5-trifluorophenyl)-1H-1,2,3-triazol-1-yl)tetrahydro-2H-pyran-2-yl)methyl)-1H-1,2,3-triazol-1-yl)-1-iminohexahydro-1l6-thiopyran 1-oxide], the IC50 [1] was 25 nM and the IC50 [2] was 170 nM.
Work on CO[C@@H]1[C@@H](n2cc(-c3ccc(C)c(F)c3F)nn2)[C@@H](O)[C@@H](CO)O[C@@H]1Cc1cc(C2(C)CCOCC2)on1 [Ex 1.270] yielded an IC50 [1] of 38 nM and an IC50 [2] of 3550 nM.
Compound CO[C@@H]1[C@@H](n2cc(-c3cc(F)c(F)c(F)c3)nn2)[C@@H](O)[C@@H](CO)O[C@@H]1Cn1cc(C2(O)CCCCC2)nn1 [Example 4.47, (2R,3R,4S,5R,6R)-6-((4-(1-hydroxycyclohexyl)-1H-1,2,3-triazol-1-yl)methyl)-2-(hydroxymethyl)-5-methoxy-4-(4-(3,4,5-trifluorophenyl)-1H-1,2,3-triazol-1-yl)tetrahydro-2H-pyran-3-ol] has an IC50 [1] of 330 nM and an IC50 [2] of 3060 nM.
Compound CO[C@@H]1[C@@H](n2cc(-c3ccc(C)c(F)c3F)nn2)[C@@H](O)[C@@H](CO)O[C@@H]1Cc1cc(C2CCN(C(C)=O)CC2)on1 [Ex 1.168] has an IC50 [1] of 29 nM and an IC50 [2] of 930 nM.
For CO[C@@H]1[C@@H](n2cc(-c3cccc(F)c3)nn2)[C@@H](O)[C@@H](CO)O[C@@H]1Cc1cc(C2CCN(C(=O)OC(C)(C)C)CC2)no1 [Ex 1.123], the IC50 [1] was 140 nM and the IC50 [2] was 140 nM.
CN1CCC(C2=NOC(C[C@H]3O[C@H](CO)[C@H](O)[C@H](n4cc(-c5cc(F)c(F)c(F)c5)nn4)[C@H]3O)C2)CC1 (mixture of isomers) [Example 3.02, (2R,3R,4R,5R,6R)-2-(hydroxymethyl)-6-(((RS)-3-(1-methylpiperidin-4-yl)-4,5-dihydroisoxazol-5-yl)methyl)-4-(4-(3,4,5-trifluorophenyl)-1H-1,2,3-triazol-1-yl)tetrahydro-2H-pyran-3,5-diol] gave an IC50 [1] of 340 nM and an IC50 [2] of 4620 nM.
Work on Cc1ncsc1C1CC(C[C@H]2O[C@H](CO)[C@H](O)[C@H](n3cc(-c4cc(F)c(F)c(F)c4)nn3)[C@H]2O)=NO1 (some centres unmarked) [Ex 1.37] yielded an IC50 [1] of 440 nM and an IC50 [2] of 7700 nM.
For CO[C@@H]1[C@@H](n2cc(-c3cc(F)c(F)c(F)c3)nn2)[C@@H](O)[C@@H](CO)O[C@@H]1C[C@H]1CC([C@@H]2CCNC(=O)C2)=NO1 [Ex 1.91], the IC50 [1] was 480 nM and the IC50 [2] was 11800 nM.
In the case of CCOC(=O)C1CCC(O)(c2cc(C[C@H]3O[C@H](CO)[C@H](O)[C@H](n4cc(-c5cc(F)c(F)c(F)c5)nn4)[C@H]3O)no2)CC1 (some centres unmarked) [Ex 1.78], the IC50 [1] is reported as 1000 nM and the IC50 [2] is reported as 9640 nM.
In the case of CO[C@@H]1[C@@H](n2cc(-c3cc(F)c(F)c(F)c3)nn2)[C@@H](O)[C@@H](CO)O[C@@H]1Cc1cc(C2(C#N)CCCC2)no1 [Ex 1.290], the IC50 [1] is reported as 270 nM and the IC50 [2] is reported as 2120 nM.
CO[C@@H]1[C@@H](n2cc(-c3ccc(C)c(F)c3)nn2)[C@@H](O)[C@@H](CO)O[C@@H]1Cc1cc(C(C)(C)C)on1 [Ex 1.189] was tested, and the IC50 [1] was 170 nM and the IC50 [2] was 5430 nM.
In the case of CCOC(=O)N1CCC(c2cn(C[C@H]3O[C@H](CO)[C@H](O)[C@H](n4cc(-c5cc(F)c(F)c(F)c5)nn4)[C@H]3OC)nn2)CC1 [Example 4.39, ethyl 4-(1-(((2R,3R,4S,5R,6R)-5-hydroxy-6-(hydroxymethyl)-3-methoxy-4-(4-(3,4,5-trifluorophenyl)-1H-1,2,3-triazol-1-yl)tetrahydro-2H-pyran-2-yl)methyl)-1H-1,2,3-triazol-4-yl)piperidine-1-carboxylate], the IC50 [1] is reported as 44 nM and the IC50 [2] is reported as 520 nM.
Compound CC(C)(C)OC(=O)N1CCC(C2=NOC(C[C@H]3O[C@H](CO)[C@H](O)[C@H](n4cc(-c5c(F)cccc5F)nn4)[C@H]3O)C2)CC1 (some centres unmarked) [Ex 1.298] has an IC50 [1] of 2500 nM and an IC50 [2] of 990 nM.
For CCCS(=O)(=O)N1CCC(c2cc(C[C@H]3O[C@H](CO)[C@H](O)[C@H](n4cc(-c5cc(F)c(F)c(F)c5)nn4)[C@H]3OC)no2)CC1 [Example 3.46, (2R,3R,4S,5R,6R)-2-(hydroxymethyl)-5-methoxy-6-((5-(1-(propylsulfonyl)piperidin-4-yl)isoxazol-3-yl)methyl)-4-(4-(3,4,5-trifluorophenyl)-1H-1,2,3-triazol-1-yl)tetrahydro-2H-pyran-3-ol], the IC50 [1] was 44 nM and the IC50 [2] was 580 nM.
With CO[C@@H]1[C@@H](n2cc(-c3cc(F)c(F)c(F)c3)nn2)[C@@H](O)[C@@H](CO)O[C@@H]1Cc1cc(C2(C#N)CCCC2)on1 [Ex 1.276] the IC50 [1] was 97 nM and the IC50 [2] was 5100 nM.
